In assay [1] the target is T1, AaegIR75k1 (Aedes aegypti, UniProt A0A6I8TFY9).
T1 construct: gene 5563741; with AaegIR8a
T1 sequence (A0A6I8TFY9 20-624): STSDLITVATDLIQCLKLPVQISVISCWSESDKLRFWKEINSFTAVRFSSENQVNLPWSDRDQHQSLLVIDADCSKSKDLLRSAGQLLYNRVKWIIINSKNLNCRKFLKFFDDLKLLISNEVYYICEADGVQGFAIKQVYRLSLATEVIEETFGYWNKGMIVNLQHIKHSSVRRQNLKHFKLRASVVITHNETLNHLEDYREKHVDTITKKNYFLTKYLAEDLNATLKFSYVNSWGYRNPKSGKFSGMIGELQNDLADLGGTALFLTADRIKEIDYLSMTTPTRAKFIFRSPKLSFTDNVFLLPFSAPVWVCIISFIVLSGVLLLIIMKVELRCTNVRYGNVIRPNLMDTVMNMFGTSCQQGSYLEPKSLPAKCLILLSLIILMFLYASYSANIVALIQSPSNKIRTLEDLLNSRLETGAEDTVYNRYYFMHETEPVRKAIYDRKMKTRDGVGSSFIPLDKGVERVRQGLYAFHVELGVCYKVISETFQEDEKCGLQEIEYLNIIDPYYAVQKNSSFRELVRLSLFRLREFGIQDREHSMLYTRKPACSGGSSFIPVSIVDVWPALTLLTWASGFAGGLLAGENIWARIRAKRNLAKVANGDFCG
T1 sequence (A0A1S4F362 23-913 partner): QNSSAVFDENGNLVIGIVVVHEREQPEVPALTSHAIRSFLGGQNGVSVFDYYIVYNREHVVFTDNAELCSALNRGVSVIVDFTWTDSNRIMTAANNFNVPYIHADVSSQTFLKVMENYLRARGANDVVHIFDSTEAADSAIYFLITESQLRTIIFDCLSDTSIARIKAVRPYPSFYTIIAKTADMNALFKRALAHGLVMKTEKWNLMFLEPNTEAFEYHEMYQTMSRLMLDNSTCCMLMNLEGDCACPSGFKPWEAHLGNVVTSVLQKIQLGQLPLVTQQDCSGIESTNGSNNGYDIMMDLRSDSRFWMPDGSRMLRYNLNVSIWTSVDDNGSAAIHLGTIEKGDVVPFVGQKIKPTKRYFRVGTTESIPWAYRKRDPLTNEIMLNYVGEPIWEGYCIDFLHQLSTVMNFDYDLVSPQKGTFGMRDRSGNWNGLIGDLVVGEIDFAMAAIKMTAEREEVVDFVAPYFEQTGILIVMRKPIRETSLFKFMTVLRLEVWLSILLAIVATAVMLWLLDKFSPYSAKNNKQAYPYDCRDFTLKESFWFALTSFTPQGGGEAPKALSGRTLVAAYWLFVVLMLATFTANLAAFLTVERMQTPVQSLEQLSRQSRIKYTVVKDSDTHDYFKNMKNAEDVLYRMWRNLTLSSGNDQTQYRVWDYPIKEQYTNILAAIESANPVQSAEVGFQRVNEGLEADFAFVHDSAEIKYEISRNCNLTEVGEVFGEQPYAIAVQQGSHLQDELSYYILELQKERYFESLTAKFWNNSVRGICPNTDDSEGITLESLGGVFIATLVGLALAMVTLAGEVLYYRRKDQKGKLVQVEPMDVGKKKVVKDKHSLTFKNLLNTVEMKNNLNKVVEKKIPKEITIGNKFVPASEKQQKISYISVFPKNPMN
Briefly: two-electrode voltage clamp, Xenopus oocytes expressing AaegIR75k1/AaegIR8a. The class given is cell-based. In general terms: Two-electrode voltage clamp is typically applied to oocytes expressing channels or transporters.

In another assay the target is T2, AaegIR75k3 (Aedes aegypti, UniProt A0A6I8U3Y9).
T2 construct: gene 5563739; with AaegIR8a
T2 sequence (A0A6I8U3Y9 20-624): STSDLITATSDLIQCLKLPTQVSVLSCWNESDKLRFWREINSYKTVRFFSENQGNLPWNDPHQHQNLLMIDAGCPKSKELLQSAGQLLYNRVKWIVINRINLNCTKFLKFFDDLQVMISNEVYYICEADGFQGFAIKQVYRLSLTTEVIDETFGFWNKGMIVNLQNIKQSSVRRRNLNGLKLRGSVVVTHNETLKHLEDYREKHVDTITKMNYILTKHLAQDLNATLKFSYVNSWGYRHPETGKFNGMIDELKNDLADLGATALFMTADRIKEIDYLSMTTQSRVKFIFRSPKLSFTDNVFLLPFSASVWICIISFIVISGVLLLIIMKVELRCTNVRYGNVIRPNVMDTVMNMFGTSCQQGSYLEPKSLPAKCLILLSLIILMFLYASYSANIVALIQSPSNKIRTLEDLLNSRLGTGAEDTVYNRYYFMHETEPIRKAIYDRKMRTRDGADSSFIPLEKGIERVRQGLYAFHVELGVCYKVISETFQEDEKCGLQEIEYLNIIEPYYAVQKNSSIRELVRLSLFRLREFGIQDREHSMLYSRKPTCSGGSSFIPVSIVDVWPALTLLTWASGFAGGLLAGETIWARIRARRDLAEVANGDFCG
T2 sequence (A0A1S4F362 23-913 partner): T1 sequence (A0A1S4F362 23-913 partner)
As to the kind of experiment: two-electrode voltage clamp, Xenopus oocytes expressing AaegIR75k3/AaegIR8a. The class given is cell-based.

The next assay concerns T3, AalbIR75e.
T3 construct: gene Ir75e; with AalbIR8a
Briefly: two-electrode voltage clamp, Xenopus oocytes expressing AalbIR75e/AalbIR8a. Type of assay: cell-based, Aedes albopictus.

Assay [2] addresses T1, AaegIR75k1. As to the kind of experiment: two-electrode voltage clamp, Xenopus oocytes, single concentration […]; response about one quarter of nonanoic acid. Type of assay: cell-based.

Broadly, the EC50 is the concentration giving half of the maximal effect. The low end stands for higher potency in that assay, the high end for lower potency in that assay. With `CCCCCCCCC(=O)O` [nonanoic acid], the EC50 on AaegIR75k1 [1] stood at 9.94 µM; on AaegIR75k3, 18.1 µM; in the assay on AalbIR75e, 8.64 µM.

Take `CCCCCCCC(=O)O` [octanoic acid]: the “two-electrode voltage clamp, Xenopus oocytes, single concentration 10^-4 M; resp” value at AaegIR75k1 [2] is “also maximally activated by nonanoic acid, with responses four-fold greater than for octanoic acid”. The compound further registered an EC50 at AaegIR75k3 of 25.2 µM.

Values taken from paper PMC10313001, “Carboxylic acids that drive mosquito attraction to humans activate ionotropic receptors” (PLOS Neglected Tropical Diseases, 2023).
